# Test results taken from patent US20260374773A1, “MULTI-CYCLIC IRAK AND FLT3 INHIBITING COMPOUNDS AND USES THEREOF” (CHILDREN'S HOSPITAL MEDICAL CENTER, priority 2022, published 2026).
# pIC50: −log10 of the molar value.
# Tests used:
# IRAK1 = IRAK1 (Homo sapiens, UniProt P51617); experiment: RBC HotSpot kinase inhibition assay, IRAK1; assay type: biochemical; conditions: isolated kinase, 33P-ATP, 2 h
# Description: (§1) This assay uses the isolated kinase enzyme. This assay is very useful for determining competition of the inhibitor for ATP and/or substrates and for measuring the kinetics of enzyme inhibition. […] Unlike kinase binding assays that measure competition for ATP, the HotSpot Kinase Assay is a functional assay that measures catalytic activity; as such it measures relative functional potency regardless of the mechanism of enzyme inhibition. This assay uses the form of the various enzymes that are easiest to express, which may not necessarily be the form of the enzyme that exist in the cell. (Sometimes the carboxy terminus has been truncated to aid in expression, or, if it is a receptor kinase, the enzyme itself is isolated from the other parts of the receptor that are involved in regulating kinase activity.)
# (§2) The reagent used was as follows: Base Reaction buffer; 20 mM Hepes (pH 7.5), 10 mM MgCl2, 1 mM EGTA, 0.01% Brij35, 0.02 mg/ml BSA, 0.1 mM Na3VO4, 2 mM DTT, 1% DMSO. Required cofactors were added individually to each kinase reaction.
# (§3) The reaction procedure was as follows: • 1) Substrates were prepared in freshly prepared Reaction Buffer. • 2) Any required cofactors were delivered to the substrate solution above. • 3) Kinase was delivered into the substrate solution and gently mixed. • 4) Compounds were delivered in 100% DMSO into the kinase reaction mixture by Acoustic technology (Echo550; nanoliter range), followed by incubation for 20 min at room temp. • 5) ^33P-ATP was delivered into the reaction mixture to initiate the reaction. • 6) The mixture was incubated for 2 hours at room temperature. • 7) Kinase activity was detected by P81 filter-binding method.
# as §1, with “Although not wishing to be limited by theory, it is believed that sometimes” for “(Sometimes”, “activity.” for “activity.)”
# (§4) The reagent used was as follows: Base Reaction buffer; 20 mM Hepes (pH 7.5), 10 mM MgCl2, 1 mM EGTA, 0.01% Brij35, 0.02 mg/ml BSA, 0.1 mM Na3 VO4, 2 mM DTT, 1% DMSO.
# (§5) Required cofactors were added individually to each kinase reaction.
# as §3, with “33P-ATP” for “^33P-ATP”
# IRAK4 = target: T1, IRAK4 (Homo sapiens, UniProt Q9NWZ3); experiment: RBC HotSpot kinase inhibition assay, IRAK4; assay type: biochemical; conditions: isolated kinase, 33P-ATP, 2 h
# T1 sequence (Q9NWZ3 1-460): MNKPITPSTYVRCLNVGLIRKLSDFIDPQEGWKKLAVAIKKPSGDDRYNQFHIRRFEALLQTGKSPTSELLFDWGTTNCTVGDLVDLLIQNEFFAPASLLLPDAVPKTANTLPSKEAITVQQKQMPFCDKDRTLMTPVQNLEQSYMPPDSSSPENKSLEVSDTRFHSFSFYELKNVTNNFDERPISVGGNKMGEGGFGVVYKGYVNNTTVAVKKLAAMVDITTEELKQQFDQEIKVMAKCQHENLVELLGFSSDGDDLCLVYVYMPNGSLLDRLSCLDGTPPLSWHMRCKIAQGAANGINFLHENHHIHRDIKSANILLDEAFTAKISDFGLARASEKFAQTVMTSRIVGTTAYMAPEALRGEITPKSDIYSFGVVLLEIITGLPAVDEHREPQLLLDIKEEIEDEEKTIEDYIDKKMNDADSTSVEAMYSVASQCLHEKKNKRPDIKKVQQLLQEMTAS
# Description: as §1, §2, §3
# as §1, with “Although not wishing to be limited by theory, it is believed that sometimes” for “(Sometimes”, “activity.” for “activity.)”
# as §4, §5
# as §3, with “33P-ATP” for “^33P-ATP”
# FLT3 = target: T2, FLT3 (Homo sapiens, UniProt P36888); experiment: RBC HotSpot kinase inhibition assay, FLT3; assay type: biochemical; conditions: isolated kinase, 33P-ATP, 2 h
# T2 sequence (P36888 27-993): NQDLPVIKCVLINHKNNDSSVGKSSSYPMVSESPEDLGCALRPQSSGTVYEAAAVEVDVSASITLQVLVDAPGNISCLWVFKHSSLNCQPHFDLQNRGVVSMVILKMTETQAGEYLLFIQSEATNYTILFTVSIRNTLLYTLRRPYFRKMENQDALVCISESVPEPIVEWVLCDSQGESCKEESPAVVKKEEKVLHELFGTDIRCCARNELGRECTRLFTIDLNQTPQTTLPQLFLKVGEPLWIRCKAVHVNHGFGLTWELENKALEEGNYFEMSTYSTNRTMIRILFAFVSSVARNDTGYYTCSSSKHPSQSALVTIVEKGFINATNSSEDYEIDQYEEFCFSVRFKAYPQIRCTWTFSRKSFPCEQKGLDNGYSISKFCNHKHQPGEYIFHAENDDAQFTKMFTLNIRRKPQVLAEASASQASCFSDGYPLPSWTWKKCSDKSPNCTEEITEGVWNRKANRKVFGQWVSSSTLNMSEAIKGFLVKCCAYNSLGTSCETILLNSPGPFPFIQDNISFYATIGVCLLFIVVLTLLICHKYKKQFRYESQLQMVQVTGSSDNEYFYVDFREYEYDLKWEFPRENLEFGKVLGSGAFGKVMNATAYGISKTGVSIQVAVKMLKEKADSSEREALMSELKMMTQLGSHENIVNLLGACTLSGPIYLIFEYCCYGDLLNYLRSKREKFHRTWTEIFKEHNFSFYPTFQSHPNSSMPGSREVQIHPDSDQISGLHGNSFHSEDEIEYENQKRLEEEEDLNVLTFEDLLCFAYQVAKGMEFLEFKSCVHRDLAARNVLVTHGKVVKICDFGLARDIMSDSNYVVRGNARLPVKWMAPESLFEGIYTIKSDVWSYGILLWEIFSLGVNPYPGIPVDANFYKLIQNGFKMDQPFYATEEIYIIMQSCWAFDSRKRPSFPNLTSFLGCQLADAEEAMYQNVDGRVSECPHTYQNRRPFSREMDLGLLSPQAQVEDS
# Description: as §1, §2, §3
# as §1, with “Although not wishing to be limited by theory, it is believed that sometimes” for “(Sometimes”, “activity.” for “activity.)”
# as §4, §5
# as §3, with “33P-ATP” for “^33P-ATP”
# MOLM14 D835Y cells = experiment: MOLM14 D835Y cell viability (Cell Titer Glo); assay type: cell-based; conditions: Homo sapiens
# Method: Both cell lines have activated FLT3 receptors, each of which carry additional resistance mutations in the kinase domain (D835Y and F691L, respectively).
# (§6) MOLM14 D835Y and MOLM14 F691L cells were grown in RPMI-1640 media supplemented with 20% fetal bovine serum (FBS). For viability/cytotoxicity assessments, cells were seeded into 1536-well white polystyrene tissue culture-treated Greiner plates using a Multidrop Combi dispenser (ThermoFisher), in final volume 5 μL of growth media per well, at a density of 1000 cells per well. After cell addition, 23 nL of test compound were transferred into individual wells (22 doses tested for each test compound, with a 1:2 dilution series starting at 10 μM) via a 1536 pin-tool. Bortezomib (final concentration 2.3 μM) was used as a positive control for cell cytotoxicity. Plates were incubated for 48 hours at standard incubator conditions covered by a stainless steel gasketed lid to prevent evaporation. 48 hours post compound addition, 3 μL of Cell Titer Glo (Promega) were added to each well and plates were incubated at room temperature for 15 minutes with the stainless-steel lid in place. Luminescence readings were taken using a Viewlux imager (PerkinElmer) with a 2 second exposure time per plate.
# This cell line has activated FLT3 receptors, which carries an additional resistance mutation in the kinase domain at D835Y.
# as §6, with “D835Y” for “D835Y and MOLM14 F691L”, “mL” for “μL”, “mM)” for “μM)”
# Sequence of IRAK1 (P51617 whole entry, the tested form may be a part): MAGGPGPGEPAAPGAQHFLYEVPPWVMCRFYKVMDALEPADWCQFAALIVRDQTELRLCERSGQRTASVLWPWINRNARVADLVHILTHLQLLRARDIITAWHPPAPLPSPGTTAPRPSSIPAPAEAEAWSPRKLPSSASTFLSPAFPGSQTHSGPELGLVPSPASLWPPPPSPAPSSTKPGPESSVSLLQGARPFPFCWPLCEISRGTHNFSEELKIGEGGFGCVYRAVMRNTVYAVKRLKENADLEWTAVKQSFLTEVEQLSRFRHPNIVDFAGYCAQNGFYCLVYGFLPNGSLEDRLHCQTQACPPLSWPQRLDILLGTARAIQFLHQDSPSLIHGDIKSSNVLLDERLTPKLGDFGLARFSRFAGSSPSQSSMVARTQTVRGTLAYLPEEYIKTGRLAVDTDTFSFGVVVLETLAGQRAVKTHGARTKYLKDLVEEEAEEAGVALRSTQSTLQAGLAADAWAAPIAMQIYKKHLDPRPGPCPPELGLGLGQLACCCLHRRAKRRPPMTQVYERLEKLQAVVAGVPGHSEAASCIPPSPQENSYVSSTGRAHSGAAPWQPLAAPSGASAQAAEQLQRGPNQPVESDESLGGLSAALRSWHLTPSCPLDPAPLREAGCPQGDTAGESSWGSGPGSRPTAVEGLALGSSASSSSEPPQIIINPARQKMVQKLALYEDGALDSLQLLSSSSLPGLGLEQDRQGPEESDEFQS
SMILES,pIC50 (IRAK1; Table 11),pIC50 (IRAK4; Table 11),pIC50 (FLT3; Table 11),"pIC50 (MOLM14 D835Y cells; MOLM-14, Table 16, 48 h)",pIC50 (IRAK1; Table 17),pIC50 (IRAK4; Table 17),pIC50 (FLT3; Table 17),"pIC50 (MOLM14 D835Y cells; MOLM-14, Table 22, 48 h)"
"COc1cn2ncc(-c3ccc(F)c(N[C@H]4CNC[C@@H]4F)n3)c2nc1C1CC1 [Compound 4, 6-(5-cyclopropyl-6-methoxypyrazolo[1,5-a]pyrimidin-3-yl)-3-fluoro-N-((3S,4S)-4-fluoropyrrolidin-3-yl)pyridin-2-amine]",8.40,9.05,> 9.30,7.44,–,–,–,–
"COc1cn2ncc(-c3ccnc(N[C@H]4CNC[C@@H]4F)n3)c2nc1C(C)(C)O [Compound 1a, 2-(3-(2-(((3S,4S)-4-fluoropyrrolidin-3-yl)amino)pyrimidin-4-yl)-6-methoxypyrazolo[1,5-a]pyrimidin-5-yl)propan-2-ol]",–,–,–,–,6.79,8.05,8.70,6.59
"COc1cn2ncc(-c3nc(N[C@@H]4CCCNC4)c(C#N)cc3F)c2nc1C1CC1 [Compound 8, (R)-6-(5-cyclopropyl-6-methoxypyrazolo[1,5-a]pyrimidin-3-yl)-5-fluoro-2-(piperidin-3-ylamino)nicotinonitrile]",> 9.30,> 9.30,> 9.30,–,–,–,–,–
"COc1cn2ncc(-c3cncc(N[C@H]4CNC[C@@H]4F)n3)c2nc1C1CC1 [Compound 10a, 6-(5-cyclopropyl-6-methoxypyrazolo[1,5-a]pyrimidin-3-yl)-N-((3S,4S)-4-fluoropyrrolidin-3-yl)pyrazin-2-amine]",–,–,–,–,8.22,9.15,> 9.30,7.09
"COc1cn2ncc(-c3nc(N[C@H]4CNC[C@@H]4F)ccc3F)c2nc1C1CC1 [Compound 1, 6-(5-cyclopropyl-6-methoxypyrazolo[1,5-a]pyrimidin-3-yl)-5-fluoro-N-((3S,4S)-4-fluoropyrrolidin-3-yl)pyridin-2-amine]",9.05,> 9.30,> 9.30,8.05,–,–,–,–

# Continued, values first:
pIC50 (IRAK1; Table 11),pIC50 (IRAK4; Table 11),pIC50 (FLT3; Table 11),"pIC50 (MOLM14 D835Y cells; MOLM-14, Table 16, 48 h)",pIC50 (IRAK1; Table 17),pIC50 (IRAK4; Table 17),pIC50 (FLT3; Table 17),"pIC50 (MOLM14 D835Y cells; MOLM-14, Table 22, 48 h)",SMILES
5.45,6.53,7.72,–,–,–,–,–,"CC(C)Oc1cnc2c(-c3cccc(N[C@H]4CNC[C@@H]4F)n3)cnn2c1 [Compound 17, N-((3S,4S)-4-fluoropyrrolidin-3-yl)-6-(6-isopropoxypyrazolo[1,5-a]pyrimidin-3-yl)pyridin-2-amine]"
5.37,7.21,8.40,–,–,–,–,–,"FC(F)COc1cnc2c(-c3cccc(N[C@H]4CNC[C@@H]4F)n3)cnn2c1 [Compound 16, 6-(6-(2,2-difluoroethoxy)pyrazolo[1,5-a]pyrimidin-3-yl)-N-((3S,4S)-4-fluoropyrrolidin-3-yl)pyridin-2-amine]"
> 9.30,> 9.30,> 9.30,8.30,–,–,–,–,"COc1cn2ncc(-c3nc(N[C@@H]4CCCNC4)c(F)cc3F)c2nc1C1CC1 [Compound 23, (R)-6-(5-cyclopropyl-6-methoxypyrazolo[1,5-a]pyrimidin-3-yl)-3,5-difluoro-N-(piperidin-3-yl)pyridin-2-amine]"
5.89,6.57,7.82,–,–,–,–,–,"F[C@H]1CNC[C@@H]1Nc1cccc(-c2cnn3cc(C4CC4)cnc23)n1 [Compound 15, 6-(6-cyclopropylpyrazolo[1,5-a]pyrimidin-3-yl)-N-((3S,4S)-4-fluoropyrrolidin-3-yl)pyridin-2-amine]"
5.21,6.31,7.49,–,–,–,–,–,"F[C@H]1CNC[C@@H]1Nc1cccc(-c2cnn3cc(Cl)cnc23)n1 [Compound 14, 6-(6-chloropyrazolo[1,5-a]pyrimidin-3-yl)-N-((3S,4S)-4-fluoropyrrolidin-3-yl)pyridin-2-amine]"
5.63,7.14,7.74,–,–,–,–,–,"COc1cnc2c(-c3cccc(N[C@H]4CNC[C@@H]4F)n3)cnn2c1 [Compound 18, N-((3S,4S)-4-fluoropyrrolidin-3-yl)-6-(6-methoxypyrazolo[1,5-a]pyrimidin-3-yl)pyridin-2-amine]"
